Data set [1] in a line: Gravimetric vapour sorption (GVS). Type of data set: physicochemical. The protocol:
Approximately 15 mg of sample was placed into a mesh vapour sorption balance pan and loaded into an IGASorp Moisture Sorption Analyser balance by Hiden Analytical. The sample was subjected to a ramping profile from 40-90% relative humidity (RH) at 10% increments, maintaining the sample at each step until a stable weight had been achieved (98% step completion). After completion of the sorption cycle, the sample was dried using the same procedure to 0% RH, then subjected to a second ramping profile from 0-90% relative humidity. After completion of the second sorption cycle, the sample was dried using the same procedure to 0% RH, and finally taken back to the starting point of 40% RH. The weight change during the sorption/desorption cycles were plotted, allowing for the hygroscopic nature of the sample to be determined.

Data set [2] is described as follows: physchem.
Data set [3] is described as follows: Effect of drying and humidity exposure on crystalline solid (XRPD). Type of data set: physicochemical. The procedure: Powder x-ray diffraction (XRPD) experiments were performed on a Rigaku MiniFlex 600 equipped with a Cu Kα radiation source (wavelength of x-rays 1.54 Å), and a scintillation detector. Samples were prepared on Si zero-return wafers. Scans were performed from 2θ 4 to 30 degrees over a step size of 0.05 over thirty minutes with cathode ray tube voltage and current 40 kV and 15 mA, respectively.
The crystalline solid was dried at 50 C under vacuum overnight, and analyzed by XRPD. […] Furthermore, the dry solid was exposed to about 95% relative humidity at room temperature for 24 hours followed by XRPD analysis. […] It should be noted that 3-HCl salt of MTP-131 deliquesces at more than 70% relative humidity.

Data set [4] in a line: physchem. The conditions noted are these: water.
Procedure: The solubility of the crystalline solid was assessed qualitatively in water.

From patent US11261213B2, “Crystalline bis- and tris-hydrochloride salt of elamipretide” (Stealth BioTherapeutics Inc., priority 2018, dated 2022) come the findings set out here.

In brackets after ≈: the same amount, converted by molar mass. Counter-ions that a name gives are not always drawn. Like-named read-outs stand apart in the source and are kept apart here. Residues, ends and D or L forms follow the SMILES beside them.

What is called solubility is the dissolved amount per volume that the medium holds. Higher therefore signals a readily soluble substance. For the compound `Cc1cc(O)cc(C)c1C[C@H](NC(=O)[C@H](N)CCCNC(=N)N)C(=O)N[C@@H](CCCCN)C(=O)N[C@@H](Cc1ccccc1)C(N)=O` [MTP-131 HCl] (HELM PEPTIDE1{[dR].[Cc1cc(O)cc(C)c1C[C@H](N[*:1])C(=O)[*:2]].K.F.[am]}$$$$V2.0), the “Hygroscopicity by GVS” value in data set [1] was “highly hygroscopic”. Moreover, the GVS mass increase entry in data set [1] (between 40-90% RH) is “ca. 30%”. Further, the “State of solid after GVS” value in data set [1] (ramping up to 90% RH) was “deliquesced and adhered to the basket”. Further, the solubility was at most 10000 µg/mL in data set [2]; under 10000 µg/mL in data set [2] (2-Propanol, Solubility at 50° C.); under 10000 µg/mL in data set [2] (2-Propanol:Water (95:5 v/v), Solubility at 50° C., 2-Propanol:Water (95:5 v/v)); under 10000 µg/mL in data set [2] (2-Propanol:Water (99:1 v/v), Solubility at 50° C., 2-Propanol:Water (99:1 v/v)); under 10000 µg/mL in data set [2] (Acetone, Solubility at 50° C.); under 10000 µg/mL in data set [2] (Acetone:Water (95:5 v/v), Solubility at 50° C., Acetone:Water (95:5 v/v)). The solubility in data set [2] (Acetonitrile:DMSO (85:15 v/v), Solubility at 50° C., Acetonitrile:DMSO (85:15 v/v)) was under 10000 µg/mL; in data set [2] (Acetonitrile:Water (95:5 v/v), Solubility at 50° C., Acetonitrile:Water (95:5 v/v)), under 10000 µg/mL; in data set [2] (Acetonitrile:Water (99:1 v/v), Solubility at 50° C., Acetonitrile:Water (99:1 v/v)) it was under 10000 µg/mL; in data set [2] (DCM:DMSO (85:15 v/v), Solubility at 50° C., DCM:DMSO (85:15 v/v)), under 10000 µg/mL; in data set [2] (Dichloromethane, Solubility, carried out at 35° C. (footnote)) it was under 10000 µg/mL; in data set [2] (Ethanol, Solubility at 50° C.), 10000 µg/mL. Besides, the solubility is about 33000 µg/mL in data set [2] (Ethanol:DMSO (95:5% v/v), Solubility at 50° C., Ethanol:DMSO (95:5% v/v)); about 67000 µg/mL in data set [2] (Ethanol:Water (95:5 v/v), Solubility at 50° C., Ethanol:Water (95:5 v/v)); over 200000 µg/mL in data set [2] (Methanol, Solubility at 50° C.); over 200000 µg/mL in data set [2] (Methanol:Water (95:5 v/v), Solubility at 50° C., Methanol:Water (95:5 v/v)); under 10000 µg/mL in data set [2] (THF:Water (95:5% v/v), Solubility at 50° C., THF:Water (95:5% v/v), (separated)); under 10000 µg/mL in data set [2] (THF:Water (99:1 v/v), Solubility at 50° C., THF:Water (99:1 v/v)). In addition, the solubility in data set [2] (Trifluoroethanol, Solubility at 50° C.) was under 10000 µg/mL. Also, the “Relative humidity at which the salt deliquesces” value in data set [3] was “more than 70 % relative humidity”.

For `Cc1cc(O)cc(C)c1C[C@H](NC(=O)[C@H](N)CCCNC(=N)N)C(=O)N[C@@H](CCCCN)C(=O)N[C@@H](Cc1ccccc1)C(N)=O` [crystalline solid] (HELM PEPTIDE1{[dR].[Cc1cc(O)cc(C)c1C[C@H](N[*:1])C(=O)[*:2]].K.F.[am]}$$$$V2.0), the solubility in data set [4] was about 60000 µg/mL (≈ 93.8 mM). For the same compound, the “Physical integrity after humidity exposure” value in data set [3] (about 95% relative humidity, room temperature, 24 hours) is listed as “physically kept its integrity”. Further, in data set [3] (dried at 50 C under vacuum overnight), the “XRPD pattern after drying (stability upon drying)” value was “No changes were observed”. Besides, the “XRPD after humidity exposure” value in data set [3] (dry solid, about 95% relative humidity, room temperature, 24 hours) is listed as “remained unchanged”.
